In patent publication US12528774B2, “Thiosemicarbazone compounds and uses thereof” (The Regents of the University of California, priority 2019, dated 2026):

Key:
MIAPACA2 cells [1] = experiment: Proliferation assay (CellTiter-Glo, 72 h) in MIAPACA2 cells; assay type: cell-based, human
MIAPACA2 cells [2] = experiment: Western blot of treated MIAPACA2 cells; assay type: cell-based, human; settings: for phosphorylation of CHEK1 and CHEK2: HCT13 + Cu(II)
Procedure: FIGS. 2A-2I. FIG. 2A: representative immunoblots of MIAPACA2 PDAC cells treated as indicated for 24h. FIGS. 2B-2C: reactive oxygen species (ROS) measurement using CM-H2DCFDA staining after HCT13 (25 nM)+Cu(II) (20 μM) treatment for 24h; mean fluorescence intensity (MFI); mean±SD, n=2, Student t-test, ***P<0.001. FIG. 2D-2E: mitochondrial ROS detection using MitoSOX staining in MIAPACA2 PDAC cells treated with HCT-13 (25 nM)+Cu(II) (20 μM) for 24h; mean±SD, n=2, Student t-test, ***P<0.001. FIG. 2F: oxygen consumption rate (OCR) of MIAPACA2 PDAC cells treated with HCT-13 (25 nM)+Cu(II) (20 μM). FIG. 2G: OCR of isolated mitochondria measured with or without HCT-13 (25 nM)+Cu(II) (20 μM). FIG. 2H: viability of 143 BTK parental (wild type, WT) and po cells after 48 h of treatment with the indicated HCT-13 concentrations+Cu(II) (20 μM) treatment, assessed with trypan blue staining; mean±SD, n=2, Student t-test, ***P<0.001. FIG. 2I: cell viability by trypan blue staining in MIAPACA2 PDAC cells to interrogate the interaction of HCT-13 (25 nM)+Cu(II) (20 μM) with 2-DG (2 mM) for 48 h; mean±SD, n=2, Student t-test, ***P<0.001.
FIGS. 4A-4G show the chemical genomics screen identifying the replication stress response pathway as an actionable co-dependency of HCT13-treated cells. FIG. 4A: experimental design of a synthetic lethality screen using a library of protein kinase inhibitors against HCT13-treated cells in the presence of Cu(II) (20 μM). FIG. 4B: radar plot of screen results. FIG. 4C: z-score values for kinase inhibitors within the DNA damage response/replication stress response (DDR/RSR) pathway module. FIG. 4D: representative immunoblot of replication stress and cell death biomarkers in MIAPACA2 PDAC cells treated with HCT13 (10 nM)+Cu(II) (20 μM). […] (mean±SD, n=2, one-way ANOVA corrected for multiple comparisons by Bonferroni adjustment, * P<0.05; ** P<0.01; *** P<0.001; **** P<0.0001).
(§1) Western blot: Cells were lysed using RIPA buffer supplemented with protease (ThermoFisher, 78,430) and phosphatase (ThermoFisher, 78,420) inhibitors, scraped, sonicated, and centrifuged (20,000×g at 4° C.). Protein concentrations in the supernatant were determined using the Micro BCA Protein Assay kit (Thermo), and equal amounts of protein were resolved on pre-made Bis-Tris polyacrylamide gels (Life Technologies). Primary antibodies: pAMPKT172 (Cell signaling, #2535, 1:1000), HO-1 (Cell signaling, #5061S, 1:1000), pS345 CHEK1 (Cell signaling, #2348L, 1:1000), pT68 CHEK2 (Cell signaling, #2197 S, 1:1000), pS139 H2A.X (Millipore, 05-636, 1:1000), clvd. Casp3 (Cell signaling, #9662, 1:1000), and anti-actin (Cell Signaling Technology, 9470, 1:10,000). Primary antibodies were stored in 5% BSA (Sigma-Aldrich) and 0.1% NaN3 in TBST solution. Anti-rabbit IgG HRP-linked (Cell Signaling Technology, 7074, 1:2500) and anti-mouse IgG HRP-linked (Cell Signaling Technology, 7076, 1:2500) were used as secondary antibodies. Chemiluminescent substrates (ThermoFisher Scientific, 34,077 and 34,095) and autoradiography film (Denville) were used for detection.
as §1, with “blot.” for “blot:”, “Anti-rabbit IgG HRP-linked (Cell Signaling Technology, 7074, 1:2500) and anti-mouse IgG HRP-linked (Cell Signaling Technology, 7076, 1:2500) were used as secondary antibodies. Chemiluminescent substrates (ThermoFisher Scientific, 34,077 and 34,095) and autoradiography film (Denville) were used for detection.” left out

143 BTK WT cells = experiment: Cell cycle analysis in 143 BTK WT cells; assay type: cell-based; settings: HCT13 + Cu(II) 20 μM
Procedure: FIG. 3A: Mito Stress Test of MIAPACA2 PDAC cells treated with HCT13 (25 nM)+Cu(II) (20 μM) for 24h. FIG. 3B: electron flow assay in isolated mitochondria treated with HCT-13 (100 nM)+Cu(II) (20 μM) for 1h. FIG. 3C: viability of 143 BTK parental (wild type, WT) and ρ0 cells after 48h of the indicated HCT13 concentration+Cu(II) (20 μM) treatment, assessed with Trypan Blue Staining. FIG. 3D: 48h cell cycle histogram and plots of S-phase arrest plots in 143 BTK WT and 143 BTK ρ0 cells at 24, 48 and 72h following treatment with indicated concentrations of HCT13+Cu(II)(20 μM). (mean±SD, n=2, one-way ANOVA corrected for multiple comparisons by Bonferroni adjustment, * P<0.05; ** P<0.01; *** P<0.001).
Another HCT compound, Dp44mT, was reported to increase AMPK expression and induce ROS, although its cytotoxicity was not attributed to the functionality of the mitochondria. (Ref 50). To determine whether the cytotoxicity of HCT13 was mitochondria-dependent, its effects upon 143 BTK ρ0, an mtDNA-deficient fibroblast cell line, was examined. Both 143 BTK ρ0 and parental (wild type, WT) cells were treated with HCT13+20 μM Cu(II) for 48 hours, after which cell viability was determined through trypan blue staining (FIG. 3C).
Cell cycle: Cell cycle was assessed using Propidium iodide staining at indicated timepoints. Cells were pulsed with EdU 1 h before collection at different time points. […]

CN(C)C(=S)N/N=C/c1nccc2cc(F)ccc12 (mixture of isomers) [HCT13, (E)-2-((6-Fluoroisoquinolin-1-yl)methylene)-N,N-dimethylhydrazine-1-carbothioamide and (Z)-2-((6-Fluoroisoquinolin-1-yl)methylene)-N,N-dimethylhydrazine-1-carbothioamide]
antiproliferative potency with Fe(II) supplementation (MIAPACA2 cells [1]; Fe(II) 20 μM): diminished but still active | antiproliferative potency with Zn(II) supplementation (MIAPACA2 cells [1]; Zn(II) 20 μM): largely inactive | heme oxygenase-1 (HO-1) levels (MIAPACA2 cells [2]; 24 h): increased | AMPK phosphorylation (T172) (MIAPACA2 cells [2]; Cu(II)-supplemented cells, 24 hours): induction | phosphorylation of CHEK1 and CHEK2 (MIAPACA2 cells [2]): consistently observed phosphorylation | phosphorylation of CHEK1 and CHEK2 (MIAPACA2 cells [2]; listed as HCT-13): phosphorylation of CHEK1 and CHEK2 kinases was observed | DNA damage marker pH2AX (MIAPACA2 cells [2]; HCT-13 + Cu(II)): induction of DNA damage marker pH2AX | apoptotic marker caspase 3 (MIAPACA2 cells [2]; HCT-13 + Cu(II)): cleavage of apoptotic marker caspase 3 | S-phase arrest (143 BTK WT cells): marked S-phase arrest
